What was measured:
[1] = system: CTSK + 2-CP; CTSB, FAP-α, Casp-3, APN, GGT, ALP, ACE, trypsin; assay: Selectivity study: fluorescence activation with inhibited CTSK or other proteases; type: biochemical; conditions: probe 10 μM, 1 h; 2-CP 50 mM pre-treatment 30 min; n = 3
Protocol: In vitro analysis of cathepsin K (CTSK) activation, selectivity, and sensitivity studies.
Probe CTSK-APPA, D-CTSK-APPA, or CTSK-APP (10 μM) was incubated with CTSK in MES buffer (50 mM, pH 6.0) containing 0.1% DMSO, 2 mM ethylene diamine tetraacetic acid (EDTA), 4 mM dithiothreitol (DTT) and 0.15% chondroitin sulfate (CS) at 37 °C for 1 h. After incubation at the indicated time, UV-Vis spectra, fluorescence spectra, fluorescence images, and PA images of the solutions were recorded. Probe CyP (10 μM) incubated with CTSK (200 ng/mL) for 1 h was further analyzed by HPLC. For selectivity study, CTSK-APPA (10 μM) in a 96-well plate was incubated with CTSK (100 ng/mL), CTSB (100 ng/mL), FAP-α (9×10-4 U/mL), Caspase-3 (100 ng/mL), APN (100 ng/mL), GGT (0.1 U/mL), ALP (0.1 U/mL), ACE (1×10-3 U/mL), and trypsin (10 U/L) at […] for 1 h. For the inhibitory experiment, CTSK (100 ng/mL) was treated with CTSK inhibitor 2-Cyanopyrimidine (2-CP, 50 mM) at 37°C for 30 min. […]
Kinetic assay. […] Fluorescence intensities of solution were measured for quantification analyses by a microplate reader (BioTek, Synergy 2) with excitation at 690 nm and emission at 720 nm. The kinetic parameters were calculated according to the Michaelis-Menten equation shown below: V = Vmax×[S]/(Km + [S]), where V is initial velocity, and [S] is substrate concentration. […]

[2] = Renal clearance efficiency study; type: in vivo, BALB/c nude mice; conditions: mice, i.v. 50 μM, 200 μL; urine, UV absorbance at 615 nm; n = 3
Protocol: Bone marrow toxicity analysis. The bone marrow toxicity of CTSK-APPA and CTSK-APP was assessed by blood analyses in mice. SPF grade 4-week-old BALB/c nude mice were intravenously injected with CTSK-APPA(50 μM, 200 μL) or saline (200 μL). The blood samples were collected in anticoagulant tubes at 24 h post-injection and stored at 4°C. The red blood count (RBC) and white blood count (WBC) were further measured.
Renal clearance efficiency studies. SPF grade 4-week-old BALB/c nude mice were intravenously injected with CTSK-APPA or CTSK-APP (50 μM, 200 μL) and placed in metabolic cages. The urine was collected at 3, 6, and 24 h post-injection, and then centrifuged at 5000 r.p.m. for 5 min. The supernatants containing excreted probes were quantified by using a UV-vis absorption spectrometer. […]
In vivo Bioluminescence, DR, CT, and MR imaging. […] Then BL imaging was recorded on an IVIS Spectrum imaging system at 10 min post-injection under anesthesia using isoflurane. All data were analyzed with the Living Image software. DR, CT, and MR imaging were recorded on an IVIS Spectrum imaging system, a single-photon emission computed tomography imaging system, and a preclinical magnetic resonance solution system, respectively.
Real-time tumor imaging. […] Fluorescence and PA images were acquired at 0, 1, 2, 4, 8, 12, and 24 h post-injection. […]
Histology. […] Images were captured by using a fluorescence microscope. […]

[3] = Hydroxyapatite (HA) adsorption assay (in vitro bone binding); conditions: probe 10 μM, HA 10 mg/mL, 37 °C, fluorescence of precipitate
Protocol: In Vitro bone-binding and CTSK activation assay. Hydroxyapatite (HA) was used as a substitute for bone in vitro to evaluate the bone-binding ability of CTSK-APPA and CTSK-APP. CTSK-APPA or CTSK-APP (10 μM) was mildly stirred with HA (10 mg/mL) at 37 °C for different times (0, 10, 30, 60, and 120 min). The mixture was centrifugated at 4000 g for 5 min and then washed with a 10-fold excess of PBS (1×) three times. The efficiency of HA binding was determined from the fluorescence intensities of the precipitation according to the equation: (F – Fblank)/(F0 – Fblank)*100%, where F represents the fluorescence intensity of the precipitation incubated with HA for a determined time, and Fblank represents the blank fluorescence intensity. […]

[4] = system: BMMs, MDA-MB-231 cells, MCF-7 cells, neutrophils; assay: Cell selectivity experiment, other cells; type: cell-based; conditions: MDA-MB-231, MCF-7, neutrophils, n = 3

For Cbz‐Leu‐Arg‐OH [CTSK-APPA], the “fluorescence activation at 720 nm by CTSK with inhibitor 2-CP or by other proteases” value [1] was “almost no fluorescence activation”, the “renal clearance efficiency 24 h post-injection” value [2] was 58.4% and the “HA-binding efficiency after 30 min” value [3] was “approximately 96%”. For the same substance, the “NIR fluorescence activation by other cells” value [4] was “did not induce NIR fluorescence activation”.
